Laboratory results from patent US20210196675A1, “USE OF GINKGO BILOBA TERPENE LACTONE IN PREPARATION OF DRUGS FOR PREVENTION AND/OR TREATMENT OF TREMORS AND HEALTHCARE PRODUCTS” (CHENGDU BAIYU PHARMACEUTICAL CO., LTD., priority 2018, published 2021).
Structures can show the parent of a compound that is named as a salt.

How the values were obtained:
[1] = test system: mice with essential tremor; assay: Rotating rod test in harmaline induced mouse model of essential tremor; type: in vivo, ICR male mice; details: for Residence Time on Rod, Time 0: 15 minutes after modeling with harmaline, immediately before administration; for Residence Time on Rod, Time 0 / Residence Time on Rod, 30 min / Residence Time on Rod, 60 min / Residence Time on Rod, 90 min / Residence Time on Rod, Pre-harmaline: mean ± SD; for Residence Time on Rod, 30 min: 30 min after time 0/administration; for Residence Time on Rod, 30 min / Residence Time on Rod, 60 min / Residence Time on Rod, 90 min: test groups 5 mg/kg·bw intraperitoneal, propranolol 2 mg/kg·bw gavage; for Residence Time on Rod, 60 min: 60 min after time 0/administration; for Residence Time on Rod, 90 min: 90 min after time 0/administration; for Ratio of area under the curve of each group to area under the curve of the model control group: area under the rod exercise ability recovery curve, model control group = 1, normal control group 6.47; for residence time on rod compared with model control group (in words): at each time point 30 min, 60 min, 90 min; for residence time on rod compared with model control group (in words) / recovery of exercise ability in the rotating rod test compared with model control (in words): p<0.05; for Residence Time on Rod, Pre-harmaline: baseline before harmaline and before administration, 10 mice per group, max 180 seconds; for recovery of exercise ability in the rotating rod test compared with model control (in words): from area under the curve, Table 2
From the text: Effect of Ginkgo biloba terpene lactone on the Mouse Model of Essential Tremor Induced by Harmaline
The following animals are used: 100 […] (ICR) male mice of SPF grade, weighted 18-22 g, purchased from Chengdu Dashuo Experimental Animal Co., Ltd., with the animal production license number of SCXK (Sichuan) 2015-030.
100 mice were randomly assigned to ear label number and randomly divided into 10 groups according to weight stratified random number method, with 10 mice in each group.
The groups are: normal control group, model control group, propranolol hydrochloride tablet control group, Ginkgo biloba leave extract injection solution control group, ginkgolide injection group, ginkgolide A group, ginkgolide B group, bilobalide group, ginkgolide B/bilobalide group (GB:BB=1:1 w/w) and ginkgolide A/B/C group (A:B:C=1:1:1 w/w/w).
The normal control group and the model control group were administrated 0.9% sodium chloride injection by intraperitoneal injection at 0.1 mL/10 g·bw.
The hydrochloride tablet control group was administrated by gavage a solution (prepared with 0.9% sodium chloride injection) at 2 mg/kg·bw.
Ginkgolide injection group, ginkgolide A group, ginkgolide B group, bilobalide group, ginkgolide B/bilobalide group, ginkgolide A/B/C group were administrated by intraperitoneal injection at 5 mg/kg·bw.
Ginkgo biloba leave extract injection solution control group was administered by intraperitoneal injection at 5 mg/kg·bw.
On the day before the rotating rod test, all mice were given rotating rod training, so that they were familiar with the relevant movements and were able to maintain balance by climbing continuously, without falling from the rotating rod at a low rotating speed (10 circles/min).
First, a rotating rod test was performed on all mice. The result was recorded as Pre-harmaline, used as the basic value of their exercise ability.
15 minutes after modeling, the time when it is observed that the mice given harmaline show obvious tremor, reduced activity and ataxia symptoms, was took as time 0. A rotating rod test was performed on all mice at time 0. Then the mice were administered immediately.
After time 0, a rotating rod test was performed on all mice at time 30 min (30 min), time 60 min (60 min), and time 90 min (90 min).
Rotary rod test method: the mice were placed on the Rota Rod Fatigue Tester, and adapted for 20 seconds. After the mice stood steady on the rod, the tester was started and the rod was accelerated at a constant rate according to the setting. Each mouse's residence time on the rod, from the beginning of the test to the time when falling off the rod, was recorded respectively. The Rota Rod Fatigue Tester supports up to 6 channels for simultaneous testing.
The rod is set to rotate at an initial speed of 5 circles/min (5 c/min) which is increased at a constant rate to a maximum speed of 30 circles/min (30c/min) during 120 seconds, and kept at the maximum speed for 60 seconds. Therefore, each test costs 180 seconds in total, and the mice that had not yet fallen off the rod at the end of 180 seconds was recorded as having a residence time of 180 seconds on the rod.
Exercise ability change curves of the mice in each group were drawn, and the area under the curve was calculated.
The experimental data were processed by using a SPSS 19.0 statistical software. The measurement data are expressed as mean±standard deviation (±SD). Data normality test was performed using the Kolmogorov-Smirnov method.

[2] = test system: Patients with Vascular Tremor; assay: Observation of dropping pills on patients with vascular tremor (tremor score, adverse reactions); type: in vivo, human; details: Patients 1, 2, 3, general information before treatment
From the text: Diagnosis criteria: A. Reduced movement, muscle rigidity, forward gait, broken steps and reciprocating; B. Positive signs of the nervous system; C. A history of hypertension and cerebral arteriosclerosis.
Exclusion criteria: Tremor paralysis caused by drugs and other diseases are excluded.
The following 6 items related to tremor are scored: 1) patient complaint; 2) upper limbs tremor procedure; 3) head, jaw, tongue and lower limbs tremor degree; 4) full water test; 5) dressing, eating, buttoning and chopsticks using; 6) drawing circles and straight lines. The score for each item is classified as: normal (scored 0 piont), mild (scored 1 point), moderate (scored 2 points) and severe (scored 3 points).
Ineffective: the difference in tremor score before and after the treatment is −1 to 1
(§1) Deterioration: the difference in tremor score before and after the treatment is ≤−2.

[3] = test system: Patients with Essential Tremor; assay: Observation of dropping pills on patients with essential tremor (tremor score, adverse reactions); type: in vivo, human; details: Patient 2, general information before treatment
From the text: The following 6 items related to tremor are scored: 1) patient complaint; 2) upper limb tremor procedure; 3) head, jaw, tongue and lower limb tremor degree; 4) full water test; 5) dressing, eating, buttoning and chopstick using; and 6) drawing circles and straight lines. The score for each item is classified as: normal (scored 0 piont), mild (scored 1 point), moderate (scored 2 points) and severe (scored 3 points).
Ineffective: the difference in tremor score before and after the treatment is −1 to 1.
as §1

SMILES | Residence Time on Rod, Time 0 [1] [s] | Residence Time on Rod, 30 min [1] [s] | Residence Time on Rod, 60 min [1] [s] | Residence Time on Rod, 90 min [1] [s] | Ratio of area under the curve of each group to area under the curve of the model control group [1] | residence time on rod compared with model control group (in words) [1] | Residence Time on Rod, Pre-harmaline [1] [s] | recovery of exercise ability in the rotating rod test compared with model control (in words) [1] | effect in this patient (patient history) [2] | effect in this patient (patient history) [3]
CC(C)(C)[C@]1(O)CC2OC(=O)CC23C(=O)OC2OC(=O)[C@H](O)C231 (stereo partly shown) [Bilobalide, bilobalide] | 40.0 ± 15.6 | 48.2 ± 12.8 | 61.2 ± 15.2 | 90.6 ± 13.9 | 2.20 | significantly higher than that of the model control group | 171.6 ± 17.9 | significantly better than that of model control mice |  | 
CC(C)NCC(O)COc1cccc2ccccc12 (stereo not shown) [Propranolol hydrochloride tablet, Propranolol hydrochloride, reference compound] | 41.6 ± 12.8 | 60.1 ± 12.8 | 77.6 ± 10.3 | 119.3 ± 13.0 | 2.74 | significantly higher than that of the model control group | 176.6 ± 12.9 | significantly better than that of model control mice |  | 
CC1C(=O)OC2C(O)C34C5CC(C(C)(C)C)C36C(OC(=O)C6O)OC4(C(=O)O5)C12O (stereo not shown) [Ginkgolide B, ginkgolide B] | 43.9 ± 12.3 | 52.6 ± 9.8 | 65.8 ± 12.8 | 100.2 ± 14.2 | 2.39 | significantly higher than that of the model control group | 175.7 ± 18.3 | significantly better than that of model control mice |  | 
N[C@@H](Cc1ccc(O)c(O)c1)C(=O)O [Levodopa] |  |  |  |  |  |  |  |  | no effect | no effect
C[C@@H]1C(=O)O[C@H]2C[C@@]34[C@H]5C[C@@H](C(C)(C)C)[C@]36[C@@H](OC(=O)[C@@H]6O)O[C@@]4(C(=O)O5)[C@]21O [Ginkgolide A, ginkgolide A] | 42.6 ± 10.8 | 50.8 ± 10.9 | 60.3 ± 13.1 | 91.4 ± 11.5 | 2.24 | significantly higher than that of the model control group | 170.6 ± 21.2 | significantly better than that of model control mice |  | 
